PMC8151276, “An Integrated Approach toward NanoBRET Tracers for Analysis of GPCR Ligand Engagement” (Molecules, 2021)

Biological target: T1, TACR1 (Homo sapiens, UniProt P25103)
T1 construct: purchased Promega (in-house HiBiT-GPCR construct library, NanoBRET)
Experiment: NanoBRET screen HiBiT-TACR1 in HEK293
Assay type: binding
Method: Each tracer candidate was screened across the entire library of HiBiT-GPCR constructs using NanoBRET as the detection modality. As depicted in Figure 4A, the specificity of interactions was evaluated through decrease in BRET due to competitive displacement of a bound tracer by excess parental compound. Each tracer was analyzed for binding to each HiBiT-GPCR fusion in the absence and in the presence of competing parental compound. Briefly, HEK293 cells were transfected with HiBiT-GPCR constructs diluted into promoterless DNA to reduce expression and maximize translocation to the cell surface. Each tracer candidate was then screened at concentrations of 1 μM and 0.1 μM across cells expressing these fusions. Cells were treated for 1.5 h with tracer either alone or in the presence of 20 μM competing parental compound (i.e., control). BRET was measured upon addition of purified LgBiT and subsequent complementation with HiBiT genetically fused to a GPCR. The specificity of interactions was assessed through a decrease in BRET signal due to competitive displacement of the bound tracer. To further gauge the robustness of these interactions, the fold response over the control (i.e., BRETtracer/BRETcontrol) was calculated. We chose a 1.5-fold response, which translates to ≥7-fold signal over noise as the minimal threshold required to score an interaction as positive.
HiBiT-GPCR DNA constructs were diluted in 10 mM Tris pH 8 to a final concentration of 0.01 μg/μL, arrayed in 96-well plates and stored at −20 °C. For transfection, HEK293 cells were suspended in Opti-MEM (without phenol red) supplemented with 2% fetal bovine serum (Seradigm) and 100 units/mL penicillin–streptomycin (Gibco) at a final concentration of 220,000 cells/mL and dispensed into white 96-well plates at 90 μL/well. Subsequent transfections and screens were carried using an Agilent Bravo Automated Liquid Handling Platform. First, the 96-well HiBiT DNA arrays were diluted 25-fold in Opti-MEM (without serum or phenol red) to a final concentration of 0.0004 μg/μL and 20 μL of the diluted DNAs were transferred into new 96-well plates. Next, promoterless carrier DNA (1 μg/μL) was diluted 25-fold (0.04 μg/μL) and then dispensed into the diluted arrays at 20 μL/well. Following brief mixing, Viafect transfection reagent (Promega) diluted 16-fold into Opti-MEM was dispensed into the plates at 40 μL/well. After mixing by pipetting, plates were incubated for 10 min on the pipetting station deck. The DNA-transfection reagent complexes were then added to plates containing cells. To facilitate the screen, 10 μL of DNA-transfection reagent complexes were added in duplicates to the top 4 and bottom 4 rows, resulting in two identical 48-well arrays per plate. Plates with transfected cells were incubated for 18–20 h at 37 °C/5% CO2. A screen of each tracer across the entire library using two different concentrations requires duplicate plates of transfected cells. Depending on the number of tracers being screened, transfections can be scaled up using the same ratios. The next day, for each tracer, four 20× screening solutions in tracer dilution buffer (Promega) were prepared: two duplicates at final concentration of 20 μM and two duplicates at a final concentration of 2 μM. […] The four resulting solutions were diluted 4-fold in Opti-MEM without serum or phenol red to generate 5× solutions (5 µM and 0.5 µM tracer +/− 100 μM competing compound). To screen the library, a BioTek MultiFlo FX liquid dispenser was used to dispense 22.5 µL of tracer solution to the top 4 rows and 22.5 µL tracer + competing compound solution to the 4 bottom rows. Plates were briefly mixed on an orbital shaker and incubated for 1.5 h at room temperature. […] Plates were briefly mixed on an orbital shaker and incubated for 15 min to allow complementation.

T1 sequence (P25103 whole entry): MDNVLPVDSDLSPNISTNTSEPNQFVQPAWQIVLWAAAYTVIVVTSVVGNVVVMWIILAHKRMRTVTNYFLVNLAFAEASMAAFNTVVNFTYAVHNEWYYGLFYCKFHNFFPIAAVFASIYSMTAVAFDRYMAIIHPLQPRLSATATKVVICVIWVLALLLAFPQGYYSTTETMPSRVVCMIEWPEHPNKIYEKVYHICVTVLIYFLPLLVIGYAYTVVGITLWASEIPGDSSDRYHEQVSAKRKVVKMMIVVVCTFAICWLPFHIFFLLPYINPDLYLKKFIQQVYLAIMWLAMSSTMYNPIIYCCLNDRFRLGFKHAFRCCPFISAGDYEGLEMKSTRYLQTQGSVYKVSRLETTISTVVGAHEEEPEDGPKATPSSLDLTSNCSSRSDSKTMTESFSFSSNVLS

Row | Structure (SMILES) | NanoBRET Fold Response (TACR1, tracer 0.1μM) | NanoBRET Fold Response (TACR1, tracer 1μM) | further results
1 | COc1ccc2c(n1)c(CCNC(C)=O)cn2CCNC(=O)CCc1ccc2n1[B-](F)(F)[N+]1=C(c3ccc[nH]3)C=CC1=C2 [Azamelatonin-1-NB590] |  |  | NanoBRET Fold Response (0.1μM tracer): 0.98; NanoBRET Fold Response (1μM tracer): 0.89
2 | CC(C)N(CC[C@H](c1ccccc1)c1cc(CCNC(=O)c2ccc(CNC(=O)CCc3ccc4n3[B-](F)(F)[N+]3=C(c5ccc[nH]5)C=CC3=C4)cc2)ccc1O)C(C)C [Tolterodine-BZ-NB590] | 0.93 | 1.01 | 
3 | O=C(CCc1ccc2n1[B-](F)(F)[N+]1=C(c3ccc[nH]3)C=CC1=C2)NCCOCCOCCNC(=O)OCCOCCN1CCN(C2=Nc3ccccc3Sc3ccccc32)CC1 [Quetiapine-a-2-NB590] | 0.97 | 0.83 | 
4 | Cc1cc2c(s1)Nc1ccccc1N=C2N1CCN(CCCNC(=O)CCOCCOCCOCCOCCNC(=O)CCc2ccc3n2[B-](F)(F)[N+]2=C(c4ccc[nH]4)C=CC2=C3)CC1 [Olanzapine-a-2-NB590] | 1.04 | 0.92 | 
5 | O=C(CCc1ccc2n1[B-](F)(F)[N+]1=C(c3ccc[nH]3)C=CC1=C2)NCc1ccc(C(=O)NCCOCCOCCNCC(O)COc2cccc3ccccc23)cc1 (stereo not shown) [Propranolol-3-NB590] |  |  | NanoBRET Fold Response (TACR1, 0.1μM): 0.99; NanoBRET Fold Response (TACR1, 1μM): 1.00
6 | CN1CCN(C2=Nc3cc(Cl)ccc3N(CC(=O)NCCOCCOCCOCCOCCNC(=O)CCc3ccc4n3[B-](F)(F)[N+]3=C(c5ccc[nH]5)C=CC3=C4)c3ccccc32)CC1 [Clozapine-c-2-NB590] |  |  | NanoBRET Fold Response (TACR1, 0.1μM tracer): 0.99; NanoBRET Fold Response (TACR1, 1μM tracer): 0.96
7 | O=C(CCc1ccc2n1[B-](F)(F)[N+]1=C(c3ccc[nH]3)C=CC1=C2)NCc1ccc(C(=O)NCCOCCC(=O)N[C@@H]2CC[C@@]3(O)[C@H]4Cc5ccc(O)c6c5[C@@]3(CCN4CC3CC3)[C@H]2O6)cc1 [Naltrexone-3-NB590] | 1.06 | 0.90 | 
8 | CC(C)N(CC[C@H](c1ccccc1)c1cc(CCNC(=O)CCOCCOCCOCCOCCNC(=O)CCc2ccc3n2[B-](F)(F)[N+]2=C(c4ccc[nH]4)C=CC2=C3)ccc1O)C(C)C [Tolterodine-2-NB590] | 1.16 | 1.01 | 
9 | Cc1nc2n(c(=O)c1CCN1CCC(c3noc4cc(F)ccc34)CC1)CCCC2OC(=O)NCCOCCOCCOCCOCCNC(=O)CCc1ccc2n1[B-](F)(F)[N+]1=C(c3ccc[nH]3)C=CC1=C2 (stereo not shown) [Risperidone-2-NB590] | 1.10 | 0.95 | 
10 | O=C(CCOCCOCCOCCOCCNC(=O)CCc1ccc2n1[B-](F)(F)[N+]1=C(c3ccc[nH]3)C=CC1=C2)NCCCN1CCN(C2=Nc3cc(Cl)ccc3Nc3ccccc32)CC1 [Clozapine-a-2-NB590] |  |  | NanoBRET Fold Response (TACR1, 0.1μM tracer): 1.15; NanoBRET Fold Response (TACR1, 1μM tracer): 1.01
11 | COc1ccc2[nH]c(-c3ccc(CNC(=O)CCOCCOCCOCCOCCNC(=O)CCc4ccc5n4[B-](F)(F)[N+]4=C(c6ccc[nH]6)C=CC4=C5)cc3)c(CCNC(C)=O)c2n1 [AzomelatoninICO9-2-NB590] |  |  | NanoBRET Fold Response (0.1μM tracer): 1.08; NanoBRET Fold Response (1μM tracer): 0.85
12 | CN1CCN(C2=Nc3cc(Cl)ccc3Nc3ccc(CNC(=O)CCOCCOCCOCCOCCNC(=O)CCc4ccc5n4[B-](F)(F)[N+]4=C(c6ccc[nH]6)C=CC4=C5)cc32)CC1 [Clozapine-b-2-NB590] |  |  | NanoBRET Fold Response (TACR1, 0.1μM tracer): 1.06; NanoBRET Fold Response (TACR1, 1μM tracer): 1.08
13 | COc1ccccc1N1CCN(CCCCN2C(=O)c3ccc(CNC(=O)CCOCCNC(=O)c4ccc(CNC(=O)CCc5ccc6n5[B-](F)(F)[N+]5=C(c7ccc[nH]7)C=CC5=C6)cc4)cc3C2=O)CC1 [NAN-190-3-NB590] | 1.13 | 1.11 | 
14 | N#CN=C(NCCCOc1cccc(CN2CCCCC2)c1)NCCNC(=O)CCOCCOCCOCCOCCNC(=O)CCc1ccc2n1[B-](F)(F)[N+]1=C(c3ccc[nH]3)C=CC1=C2 [Aminopotentidine-2-NB590] | 1.01 | 1.02 | 
15 | CN(C)CCC=C1c2ccccc2CCc2ccc(C(=O)NCCNC(=O)CCOCCOCCOCCOCCNC(=O)CCc3ccc4n3[B-](F)(F)[N+]3=C(c5ccc[nH]5)C=CC3=C4)cc21 [Amitriptyline-b-2-NB590] |  |  | NanoBRET Fold Response (tracer at 0.1μM, listed as amitriptyline-b-2-NB590): 1.45; NanoBRET Fold Response (tracer at 1μM, listed as amitriptyline-b-2-NB590): 1.07
16 | COc1ccccc1N1CCN(CCCCN2C(=O)c3ccc(CNC(=O)CCOCCOCCOCCOCCNC(=O)CCc4ccc5n4[B-](F)(F)[N+]4=C(c6ccc[nH]6)C=CC4=C5)cc3C2=O)CC1 [NAN-190-2-NB590] | 0.98 |  | 
17 | O=C(CCOCCOCCOCCOCCNC(=O)CCc1ccc2n1[B-](F)(F)[N+]1=C(c3ccc[nH]3)C=CC1=C2)NCCCN1CCN(C2=Nc3ccccc3Oc3ccc(Cl)cc32)CC1 [Loxapine-a-2-NB590] | 1.06 | 1.12 | 
18 | CN(C)CCC=C1c2ccccc2CCc2ccc(C(=O)NCCNC(=O)CCOCCOCCOCCOCCNC(=O)CCc3ccc4n3[B-](F)(F)[N+]3=C(c5ccc[nH]5)C=CC3=C4)cc21 [Amitriptyline-a-2-NB590] |  |  | NanoBRET Fold Response (tracer at 0.1μM): 1.17; NanoBRET Fold Response (tracer at 1μM): 1.18
19 | CCOC(=O)c1cc(C#N)c(N2CCC(C(=O)NS(=O)(=O)Cc3ccccc3/C=C/C(=O)NCCNC(=O)CCc3ccc4n3[B-](F)(F)[N+]3=C(c5ccc[nH]5)C=CC3=C4)CC2)nc1C [AZD1283-1-NB590] |  |  | NanoBRET Fold Response (TACR1, 0.1μM): 1.06; NanoBRET Fold Response (TACR1, 1μM): 1.09
